Measurements published in patent US7192760B2 (priority 2000, dated 2007).
Read-outs that look alike come from different tables or passages of the source.

What was measured:
[1] = system: Brevibacterium lactofermentum KFCC-10680; assay: α-Aminobutyric acid resistance: growth on minimal medium containing α-aminobutyric acid; type: cell-based; conditions: strain KFCC-10680, cultivation at 30° C. for 6 days
[2] = system: Brevibacterium lactofermentum CJJA22; assay: as above; type: cell-based; conditions: strain printed CJJA21; α-aminobutyric acid 20 g/l; cultivation at 30° C. for 6 days
[3] = system: Brevibacterium lactofermentum KFCC-10680; conditions: strain KFCC-10680, cultivation at 30° C. for 6 days
[4] = system: Brevibacterium lactofermentum CJJA21; conditions: strain CJJA21; sodium azide 800 mg/l; cultivation at 30° C. for 6 days

Compound | growth ([1]; α-aminobutyric acid 5 g/l) | growth ([1]; α-aminobutyric acid 10 g/l) | growth ([1]; α-aminobutyric acid 15 g/l) | growth ([1]; α-aminobutyric acid 20 g/l) | growth [2] | growth ([3]; sodium azide 100 mg/l) | growth ([3]; sodium azide 200 mg/l) | growth ([3]; sodium azide 300 mg/l) | growth ([3]; sodium azide 500 mg/l) | growth ([3]; sodium azide 800 mg/l) | growth [4]
CCC(N)C(=O)O (racemic) [α-aminobutyric acid, D,L-α-amino-n-butyric acid] | + | − | − | − | − |  |  |  |  |  | 
[N-]=[N+]=[N-] [Sodium azide, sodium azide] |  |  |  |  |  | + | + | − | − | − | −
